{"source": "PubChem BioAssay AID256", "about": "(DTP/NCI, 2004)", "test_system": "CD2F1 mice, L1210 leukemia ip, survival T/C", "assay": "NCI In Vivo Anticancer Drug Screen. Data for tumor model L1210 Leukemia (intraperitoneal) in CD2F1 (CDF1) mice", "conditions": "higher = longer survival", "procedure,_shortened": "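Vehicle-treated tumor-bearing mice served as controls (C) for compound-treated mice (T). Reported figure is T divided by C.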", "key": {"[1]": {"conditions": "endpoint: mean survival time, dose: 100.0 mg/kg/injection, schedule: Q04DX003 (ip), vehicle: saline"}, "[2]": {"conditions": "endpoint: mean survival time, dose: 200.0 mg/kg/injection, schedule: Q04DX003 (ip), vehicle: saline"}, "[3]": {"conditions": "endpoint: mean survival time, dose: 400.0 mg/kg/injection, schedule: Q04DX003 (ip), vehicle: saline"}, "[4]": {"conditions": "endpoint: mean survival time, dose: 100.0 mg/kg/injection, schedule: Q01DX009 (ip), vehicle: saline with Tween-80"}, "[5]": {"conditions": "endpoint: mean survival time, dose: 200.0 mg/kg/injection, schedule: Q01DX009 (ip), vehicle: saline with Tween-80"}, "[6]": {"conditions": "endpoint: mean survival time, dose: 25.0 mg/kg/injection, schedule: Q04DX003 (ip), vehicle: saline with Tween-80"}, "[7]": {"conditions": "endpoint: mean survival time, dose: 50.0 mg/kg/injection, schedule: Q04DX003 (ip), vehicle: saline with Tween-80"}, "[8]": {"conditions": "endpoint: mean survival time, dose: 100.0 mg/kg/injection, schedule: Q04DX003 (ip), vehicle: saline with Tween-80"}}, "note": "Values joined by “and” are separate entries in the source; they are usually repeats but may differ in a detail not shown here. Equal entries are not always repeated. Inconclusive results and toxic doses are left out.", "data": [{"smiles": "O=C(CCCC1CCCCC1)Cc1ccccc1", "values": [{"measurement": "T/C", "setting": "endpoint: mean survival time, dose: 100.0 mg/kg/injection, schedule: Q04DX003 (ip), vehicle: acetone", "result": "96 % of control"}, {"measurement": "T/C", "setting": "endpoint: mean survival time, dose: 200.0 mg/kg/injection, schedule: Q04DX003 (ip), vehicle: acetone", "result": "94 % of control"}, {"measurement": "T/C", "setting": "endpoint: mean survival time, dose: 400.0 mg/kg/injection, schedule: Q04DX003 (ip), vehicle: acetone", "result": "102 % of control"}]}, {"smiles": "CCC(C)(C)N", "values": [{"measurement": "T/C", "setting": "[1]", "result": "100 % of control"}, {"measurement": "T/C", "setting": "[2]", "result": "106 % of control"}, {"measurement": "T/C", "setting": "[3]", "result": "103 % of control"}]}, {"smiles": "COc1cc(NS(C)(=O)=O)ccc1Nc1c2ccc([N+](=O)[O-])cc2nc2c(C)cccc12", "values": [{"measurement": "T/C", "setting": "endpoint: mean survival time, dose: 3.75 mg/kg/injection, schedule: Q04DX003 (ip), vehicle: saline with Tween-80", "result": "151 % of control"}, {"measurement": "T/C", "setting": "endpoint: mean survival time, dose: 7.5 mg/kg/injection, schedule: Q01DX009 (ip), vehicle: saline with Tween-80", "result": "111 % of control"}, {"measurement": "T/C", "setting": "endpoint: mean survival time, dose: 7.5 mg/kg/injection, schedule: Q04DX003 (ip), vehicle: saline with Tween-80", "result": "164 % of control"}, {"measurement": "T/C", "setting": "endpoint: mean survival time, dose: 15.0 mg/kg/injection, schedule: Q04DX003 (ip), vehicle: saline with Tween-80", "result": "235 % of control"}, {"measurement": "T/C", "setting": "endpoint: mean survival time, dose: 37.5 mg/kg/injection, schedule: Q04DX003 (ip), vehicle: saline", "result": "109 % of control"}, {"measurement": "T/C", "setting": "endpoint: mean survival time, dose: 75.0 mg/kg/injection, schedule: Q04DX003 (ip), vehicle: saline", "result": "86 % of control"}]}, {"smiles": "NCC1OC(OC2C(CO)OC(OC3C(O)C(N)CC(N)C3OC3OC(CO)C(O)CC3N)C2O)C(N)C(O)C1OC1OC(CO)C(O)C(O)C1O", "note": "(configuration not stated)", "values": [{"measurement": "T/C", "setting": "endpoint: mean survival time, dose: 100.0 mg/kg/injection, schedule: Q04DX002 (ip), vehicle: saline", "result": "98 % of control"}, {"measurement": "T/C", "setting": "endpoint: mean survival time, dose: 200.0 mg/kg/injection, schedule: Q04DX002 (ip), vehicle: saline", "result": "92 % of control"}, {"measurement": "T/C", "setting": "endpoint: mean survival time, dose: 400.0 mg/kg/injection, schedule: Q04DX002 (ip), vehicle: saline", "result": "95 % of control"}]}, {"smiles": "CC(C)(C)c1ccc(O)c(Sc2cc(C(C)(C)C)ccc2O)c1", "values": [{"measurement": "T/C", "setting": "endpoint: mean survival time, dose: 50.0 mg/kg/injection, schedule: Q01DX009 (ip), vehicle: other", "result": "96 % of control"}, {"measurement": "T/C", "setting": "endpoint: mean survival time, dose: 100.0 mg/kg/injection, schedule: Q01DX009 (ip), vehicle: other", "result": "98 % of control"}, {"measurement": "T/C", "setting": "[4]", "result": "98 % of control"}, {"measurement": "T/C", "setting": "endpoint: mean survival time, dose: 200.0 mg/kg/injection, schedule: Q01DX009 (ip), vehicle: other", "result": "101 % of control"}, {"measurement": "T/C", "setting": "[5]", "result": "103 % of control"}, {"measurement": "T/C", "setting": "endpoint: mean survival time, dose: 400.0 mg/kg/injection, schedule: Q01DX009 (ip), vehicle: saline with Tween-80", "result": "94 % of control"}]}, {"smiles": "O=C(O)CC(=O)O.[NH-]C1CCCCC1C1CCCCC1[NH-].[Pt+2]", "note": "(configuration not stated)", "values": [{"measurement": "T/C", "setting": "endpoint: mean survival time, dose: 3.12 mg/kg/injection, schedule: Q04DX003 (ip), vehicle: distilled water + Tween-80", "result": "106 % of control"}, {"measurement": "T/C", "setting": "endpoint: mean survival time, dose: 6.25 mg/kg/injection, schedule: Q04DX003 (ip), vehicle: distilled water + Tween-80", "result": "112 % of control"}, {"measurement": "T/C", "setting": "endpoint: mean survival time, dose: 12.5 mg/kg/injection, schedule: Q04DX003 (ip), vehicle: distilled water + Tween-80", "result": "119 % of control"}, {"measurement": "T/C", "setting": "endpoint: mean survival time, dose: 50.0 mg/kg/injection, schedule: Q04DX003 (ip), vehicle: distilled water + Tween-80", "result": "165 % of control"}, {"measurement": "T/C", "setting": "endpoint: mean survival time, dose: 100.0 mg/kg/injection, schedule: Q04DX003 (ip), vehicle: distilled water + Tween-80", "result": "201 % of control"}, {"measurement": "T/C", "setting": "endpoint: mean survival time, dose: 200.0 mg/kg/injection, schedule: Q04DX003 (ip), vehicle: distilled water + Tween-80", "result": "194 % of control"}]}, {"smiles": "CC(=O)OCC1OC(n2nc(CBr)cc2C(N)=O)C(OC(C)=O)C(OC(C)=O)C1OC(C)=O", "note": "(configuration not stated)", "values": [{"measurement": "T/C", "setting": "endpoint: mean survival time, dose: 12.5 mg/kg/injection, schedule: Q01DX005 (ip), vehicle: distilled water + Tween-80", "result": "104 % of control"}, {"measurement": "T/C", "setting": "endpoint: mean survival time, dose: 25.0 mg/kg/injection, schedule: Q01DX005 (ip), vehicle: distilled water + Tween-80", "result": "96 % of control"}, {"measurement": "T/C", "setting": "endpoint: mean survival time, dose: 50.0 mg/kg/injection, schedule: Q01DX005 (ip), vehicle: distilled water + Tween-80", "result": "98 % of control"}, {"measurement": "T/C", "setting": "endpoint: mean survival time, dose: 100.0 mg/kg/injection, schedule: Q01DX005 (ip), vehicle: distilled water + Tween-80", "result": "92 % of control"}, {"measurement": "T/C", "setting": "endpoint: mean survival time, dose: 200.0 mg/kg/injection, schedule: Q01DX005 (ip), vehicle: distilled water + Tween-80", "result": "93 % of control"}]}, {"smiles": "N#CC1C(=O)NC(O)(c2ccccc2)C1c1ccccc1", "note": "(configuration not stated)", "values": [{"measurement": "T/C", "setting": "[6]", "result": "105 % of control"}, {"measurement": "T/C", "setting": "[7]", "result": "105 % of control"}, {"measurement": "T/C", "setting": "[8]", "result": "97 % of control and 105 % of control"}]}, {"smiles": "COc1cc(/C=N/NC(=O)c2cccs2)cc(OC)c1OC", "values": [{"measurement": "T/C", "setting": "[8]", "result": "98 % of control"}, {"measurement": "T/C", "setting": "endpoint: mean survival time, dose: 200.0 mg/kg/injection, schedule: Q04DX003 (ip), vehicle: saline with Tween-80", "result": "93 % of control"}, {"measurement": "T/C", "setting": "endpoint: mean survival time, dose: 400.0 mg/kg/injection, schedule: Q04DX003 (ip), vehicle: saline with Tween-80", "result": "88 % of control"}]}, {"smiles": "Cc1ccc(C(=O)NC2C(=O)NC(C(C)C)C(=O)N3CCCC3C(=O)N(C)CC(=O)N(C)C(C(C)C)C(=O)OC2C)c2c1Oc1c(c(C(=O)NC3C(=O)NC(C(C)C)C(=O)N4CCCC4C(=O)N(C)CC(=O)N(C)C(C(C)C)C(=O)OC3C)c3nc(-c4ccccc4)c(=O)oc3c1C)N2", "note": "(configuration not stated)", "values": [{"measurement": "T/C", "setting": "endpoint: median survival time, dose: 0.06 mg/kg/injection, schedule: Q01DX009 (ip), vehicle: water", "result": "112 % of control"}, {"measurement": "T/C", "setting": "endpoint: median survival time, dose: 0.12 mg/kg/injection, schedule: Q01DX009 (ip), vehicle: water", "result": "122 % of control"}, {"measurement": "T/C", "setting": "endpoint: median survival time, dose: 0.25 mg/kg/injection, schedule: Q01DX009 (ip), vehicle: water", "result": "117 % of control"}]}, {"smiles": "CCNc1nc(Cl)nc(NC(C)C)n1", "values": [{"measurement": "T/C", "setting": "[4]", "result": "93 % of control"}, {"measurement": "T/C", "setting": "[1]", "result": "95 % of control"}, {"measurement": "T/C", "setting": "[5]", "result": "98 % of control"}, {"measurement": "T/C", "setting": "[2]", "result": "101 % of control"}, {"measurement": "T/C", "setting": "[3]", "result": "92 % of control"}]}, {"smiles": "COc1ccc2[nH]cc(CCN(C)C)c2c1", "values": [{"measurement": "T/C", "setting": "endpoint: mean survival time, dose: 12.5 mg/kg/injection, schedule: Q01DX009 (ip), vehicle: saline with Tween-80", "result": "94 % of control"}, {"measurement": "T/C", "setting": "endpoint: mean survival time, dose: 12.5 mg/kg/injection, schedule: Q04DX003 (ip), vehicle: saline with Tween-80", "result": "100 % of control"}, {"measurement": "T/C", "setting": "endpoint: mean survival time, dose: 25.0 mg/kg/injection, schedule: Q01DX009 (ip), vehicle: saline with Tween-80", "result": "91 % of control"}, {"measurement": "T/C", "setting": "[6]", "result": "95 % of control"}, {"measurement": "T/C", "setting": "endpoint: mean survival time, dose: 50.0 mg/kg/injection, schedule: Q01DX009 (ip), vehicle: saline with Tween-80", "result": "92 % of control"}, {"measurement": "T/C", "setting": "[7]", "result": "96 % of control"}]}]}
